Earlier results as cited in US20010027177A1, “Pharmaceutical composition containing a small or medium size peptide” (priority 2000, published 2001).

How the values were obtained:
[1] = adsorption to glass bottles and plastic tubing used in giving sets
[2] = solutions free from preservative; polystyrene, polypropylene and glass tubes; 24 hours at room temperature

## insulin: peptide drug cited for adsorption to glass bottles and plastic tubing
[1]
  losses of activity/potency because of adsorption: ≤ 78.8%

## NC(=O)CC[C@@H]1NC(=O)[C@H](Cc2ccccc2)NC(=O)[C@H](Cc2ccc(O)cc2)NC(=O)CCSSC[C@@H](C(=O)N2CCC[C@H]2C(=O)N[C@H](CCCN=C(N)N)C(=O)NCC(N)=O)NC(=O)[C@H](CC(N)=O)NC1=O [desmopressin, 1-deamino-8-D-arginin-vasopressin]
[2]
  loss of active principle because of adsorption by the walls: lose about the half of active principle

## benzalkonium chloride
Nasal ciliar motility
  effect on nasal ciliar motility: irreversible suppression of the nasal ciliar motility
